From publication PMC12326981, “Novel C5α-substituted carbapenems enhance Mycobacterium abscessus killing via selective target binding and reduced hydrolysis by BlaMab” (Antimicrobial Agents and Chemotherapy, 2025)
Like-named read-outs stand apart in the source and are kept apart here. Marks after values point to notes of the source that are not given here.

What was measured:
[1] = test system: Mab strain ATCC 19977 and three clinical isolates (Mab122, Mab686, and UH01); assay: Static concentration time-kill (SCTK) assay; type: cell-based, Mycobacterium abscessus
Experimental: SCTK studies were conducted over 5 days in Middlebrook 7H9 broth supplemented with 10% (vol/vol) OADC, 0.2% (vol/vol) glycerol, and 0.05% (vol/vol) Tween 80 in duplicate. The efficacy of JDB/NA-1-157 and JDB/NA-208 was evaluated using Mab strain ATCC 19977 and three clinical isolates (Mab122, Mab686, and UH01) at an initial inoculum of 10^5.5–10^6.3 CFU/mL. […] Bacterial killing was assessed across a wide range of concentrations for JDB/NA-1-157 and JDB/NA-1-208 individually (0.0625–64.0 mg/L).
For the combination study, the concentrations of JDB/NA-1-157 and JDB/NA-1-208 were selected based on MIC results and time-killing profiles of the single-drug study, while the concentrations of other β-lactams and BLIs were chosen based on clinically relevant levels, determined from the predicted average unbound steady-state concentrations (fCss,avg) in plasma at clinically relevant doses ([27]). The drug concentrations used were JDB/NA-1-157, 1 mg/L; JDB/NA-1-208, 8 mg/L; imipenem, 12 mg/L; ceftaroline, 8 mg/L; cefuroxime, 8 mg/L; amoxicillin, 2 mg/L; avibactam, 4 mg/L; durlobactam, 12 mg/L; amikacin, 12 mg/L; clarithromycin, 0.3 mg/L; and cefoxitin, 7 mg/L. The SOC regimen was included for comparison of efficacy. On day 3, the broth was replaced with fresh broth containing the corresponding drug concentrations. For viable cell counts, 100 µL of undiluted or appropriately diluted samples was subcultured on Middlebrook 7H10 agar plates supplemented with 1% (vol/vol) OADC, 0.2% glycerol, and 0.05% (vol/vol) Tween 80. All samples were washed twice with sterile 0.9% saline prior to serial dilution or plating.

[2] = target: BlaMab (Mycobacteroides abscessus, UniProt B1MCI3); assay: Mass spectrometric analysis of acyl-enzyme adducts; type: binding; set-up: key to Mass of protein after incubation (mass shift): (.) indicates no detectable binding; conditions: for adduct formation with BlaMab: mass spectrometry
BlaMab, sequence (B1MCI3 entry or part of it): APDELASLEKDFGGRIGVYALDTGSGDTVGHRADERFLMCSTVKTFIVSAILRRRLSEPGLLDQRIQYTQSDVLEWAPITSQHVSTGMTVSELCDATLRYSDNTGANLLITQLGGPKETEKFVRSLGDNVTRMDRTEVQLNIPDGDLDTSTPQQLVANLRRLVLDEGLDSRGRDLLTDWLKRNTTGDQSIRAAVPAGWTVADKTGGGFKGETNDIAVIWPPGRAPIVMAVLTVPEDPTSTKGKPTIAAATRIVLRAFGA
Experimental: (§1) Truncated sequences of BlaMab (Δ1–30 blaMab), LDT1–5, DDC, PBP B, PonA2, and PBP-lipo (Δ1–41) were synthesized by Celtek Biosciences (Franklin, TN) and cloned into the pET28(a)+ vector. Purification of LDTs and PBPs was carried out as previously described ([15], [16], [20]). Briefly, clones were transformed into Escherichia coli BL21 (DE3), and protein expression was induced with 0.25 mM isopropyl β-d-1-thiogalactopyranoside. Cell pellets were resuspended in buffer containing 50 mM Tris (pH 8.0), 400 mM sodium chloride, and 1 mM Tris(2-carboxyethyl)phosphine hydrochloride and lysed by sonication. After centrifugation, the supernatant was purified using a His Prep FF column and eluted with 500 mM imidazole.
(§2) The purified proteins were incubated at room temperature with JDB/NA-1-157 and JDB/NA-1-208 at a molar ratio of 1:10 for 2 h. A quadrupole time-of-flight mass spectrometer (Waters Synapt-G2-Si) with electrospray ionization and a Waters Acquity H-Class UPLC system were used to analyze the samples. The liquid chromatography conditions were as follows: a BEH C18 column (1.7 µm, 2.1 × 50 mm) and a mobile phase consisting of 0.1% formic acid in water and 0.1% formic acid in acetonitrile, with a gradient elution from 10% to 90% acetonitrile over 11 min at a flow rate of 0.5 mL/min. The MS settings were optimized with a capillary voltage of 3 kV, a sampling cone voltage of 35 V, and source and desolvation temperatures of 100°C and 500°C, respectively. Gas flow rates were 100 L/h for the cone and 800 L/h for desolvation. The mass accuracy was maintained at ±5 Da.

[3] = test system: DDC; assay: Mass spectrometric analysis of acyl-enzyme adducts; type: binding, Mycobacterium abscessus; set-up: key: (.) indicates no detectable binding; conditions: DDC (29,750); 1:10 molar ratio, 2 h; accuracy ±5 Da
Experimental: as §1, §2

[4] = target: LDT5 (Mycobacteroides abscessus, UniProt B1MHQ4); assay: Mass spectrometric analysis of acyl-enzyme adducts; type: binding, Mycobacterium abscessus; set-up: key: (.) indicates no detectable binding; conditions: LDT5 (28,220); 1:10 molar ratio, 2 h; accuracy ±5 Da
LDT5, sequence (B1MHQ4 entry or part of it): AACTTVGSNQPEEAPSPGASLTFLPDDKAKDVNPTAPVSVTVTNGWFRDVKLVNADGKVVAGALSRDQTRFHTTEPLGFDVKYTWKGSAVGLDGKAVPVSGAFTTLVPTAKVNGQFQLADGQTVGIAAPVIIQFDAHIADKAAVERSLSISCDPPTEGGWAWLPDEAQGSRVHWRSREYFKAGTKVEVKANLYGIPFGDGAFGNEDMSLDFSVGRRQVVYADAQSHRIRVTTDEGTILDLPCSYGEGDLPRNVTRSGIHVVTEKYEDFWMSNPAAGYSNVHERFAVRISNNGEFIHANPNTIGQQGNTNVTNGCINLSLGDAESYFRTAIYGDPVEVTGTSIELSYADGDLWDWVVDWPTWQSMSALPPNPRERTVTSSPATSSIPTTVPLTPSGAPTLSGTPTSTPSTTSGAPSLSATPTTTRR
Experimental: as §1, §2

[5] = target: PBP B (Mycobacteroides abscessus, UniProt B1MP31); assay: Apparent inhibition constant (nitrocefin, Dixon plot); type: biochemical; conditions: PBP B
PBP B, sequence (B1MP31 entry or part of it): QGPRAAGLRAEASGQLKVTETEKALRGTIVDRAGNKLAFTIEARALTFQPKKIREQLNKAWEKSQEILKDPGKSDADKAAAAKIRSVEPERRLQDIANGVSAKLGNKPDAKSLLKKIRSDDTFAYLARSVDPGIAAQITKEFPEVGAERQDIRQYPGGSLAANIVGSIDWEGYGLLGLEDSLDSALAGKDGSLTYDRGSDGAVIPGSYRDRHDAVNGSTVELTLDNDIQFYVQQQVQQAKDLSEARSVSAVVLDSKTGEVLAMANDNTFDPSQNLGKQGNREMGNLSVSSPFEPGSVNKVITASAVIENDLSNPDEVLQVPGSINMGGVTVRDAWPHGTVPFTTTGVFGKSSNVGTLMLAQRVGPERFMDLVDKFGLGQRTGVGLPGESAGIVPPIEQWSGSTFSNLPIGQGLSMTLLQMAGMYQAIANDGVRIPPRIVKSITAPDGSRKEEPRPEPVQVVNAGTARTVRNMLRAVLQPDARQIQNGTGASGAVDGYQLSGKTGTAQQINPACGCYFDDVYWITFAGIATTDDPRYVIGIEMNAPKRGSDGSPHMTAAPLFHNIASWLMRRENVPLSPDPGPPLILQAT
Experimental: Steady-state kinetic studies with JDB/NA-1-157 and JDB/NA-1-208 were performed using purified LDTs and PBPs, including LDT1–5, PBP-B, PBP-lipo, and D,D-carboxypeptidase. The assays were conducted on a BioTek Synergy2 multimode reader equipped with Gen5 software. To determine the Michaelis constant (Km^NCF) for each LDT and PBP, a wide range of NCF concentrations was tested, while the enzyme concentrations were fixed. Absorbance changes at 482 nm were monitored over 10 min. Steady-state kinetic parameters (Vmax and Km) were derived by fitting the experimental data to the Henri–Michaelis–Menten equation using nonlinear least-squares regression in GraphPad Prism version 9. The reaction velocity (v) at a given substrate concentration ([S]) was calculated using equation 2: […]
The apparent inhibition constants (Ki,app) for JDB/NA-1-157 and JDB/NA-1-208 were determined under the following conditions: an NCF concentration of 5 × Km, fixed concentrations of LDT or PBP enzymes, and varying concentrations of JDB/NA-1-157 and JDB/NA-1-208. Absorbance changes at 482 nm were monitored over a 30 min period for each inhibitor concentration. The data were linearized using a Dixon plot, which involves plotting the reciprocal of the absorbance change (1/ΔA) against the concentrations of JDB/NA-1-157 or JDB/NA-1-208. Apparent Ki,app values were derived from the intersection points on the Dixon plot and were subsequently corrected for substrate concentration and enzyme affinity using equation 3:
(3) Ki,app=observed Ki,app/1+[NCF]/Km NCF.

| Compound | bacterial killing in combination ([1]; 1 mg/L with BLIs (avibactam or durlobactam) or β-lactams (cefuroxime, ceftaroline, or amoxicillin), by day 3, ATCC 19977, Mab122, Mab686) | bacterial killing on addition of avibactam ([1]; ATCC 19977, JDB/NA-1-157 1 mg/L + avibactam 4 mg/L) | log10 CFU/mL reduction ([1]; single agent, 4 mg/L, over 5 days, ATCC 19977 and clinical isolates) | bacterial killing at high concentration ([1]; single agent, 16–64 mg/L, 5 days) | adduct formation with BlaMab [2] | Mass of protein after incubation (mass shift) [3] | Mass of protein after incubation (mass shift) [4] | Ki ([5]; Ki,app) | effect of combining with avibactam on killing ([1]; 8 mg/L + avibactam 4 mg/L) | bacterial killing in combination ([1]; 8 mg/L with ceftaroline, cefuroxime, amoxicillin (with avibactam), or durlobactam) | log10 CFU killing ([1]; single agent, 64 mg/L) | Mass of protein after incubation (mass shift) ([2]; BlaMab (28,433), 1:10 molar ratio, 2 h, room temperature, accuracy ±5 Da) | Ki ([5]; read-out: Ki,app (converted)) |
| --- | --- | --- | --- | --- | --- | --- | --- | --- | --- | --- | --- | --- | --- |
| C[C@@H](O)[C@H]1C(=O)N2C(C(=O)O)=C(S[C@@H]3CN[C@H](C(=O)N(C)C)C3)C[C@]12C [JDB/NA-1-157] | near-complete eradication | up to 2.5 log10 CFU/mL | 1.5–2.0 log10 CFU/mL | near-complete eradication | formed a complex | 30,134 (+383) Da | 28,219 (.) | 4.9 µM | – | – | – | – | – |
| CC[C@]12CC(S[C@@H]3CN[C@H](C(=O)N(C)C)C3)=C(C(=O)O)N1C(=O)[C@@H]2[C@@H](C)O [JDB/NA-1-208] | – | – | – | – | did not form an adduct | 29,750 (.) | 28,617 (+397) Da | – | no significant effect | near-complete eradication | ~ 3 log10 CFU | 28,434 (.)^b | 0.0805 µM |
